Experimental data as given in patent US20020102280A1, “Solvent systems for pharmaceutical agents” (priority 2000, published 2002).
Read-outs that look alike come from different tables or passages of the source.

Key:
[1] = physchem
Excerpt: Approximately 0.17 gm of Epikuron 200, 0.7 gm essential oil of sweet basil, 0.25 gm of water, and 0.25 gm of glycerol were mixed and the mixture centrifuged.
In this experiment, essential oils of ginger and sweet basil were combined to solubilize the bioactive compound ubiquinone (a coenzyme Q10) in a phospholipid-rich reversed liquid crystal.

[2] = Solubilizing paclitaxel in essential oils
[3] = water-solubilized hydrochloride form; cited from earlier work
[4] = oral, intramuscular and intraperitoneal routes; cited from earlier work
[5] = cited from earlier work
[6] = cited from earlier work; remark: listed apart in the source
[7] = free base form; cited from earlier work

COC1=C(OC)C(=O)C(C/C=C(\C)CC/C=C(\C)CC/C=C(\C)CC/C=C(\C)CC/C=C(\C)CC/C=C(\C)CC/C=C(\C)CC/C=C(\C)CC/C=C(\C)CCC=C(C)C)=C(C)C1=O [Coenzyme Q10, ubiquinone]
solubilization in reversed bicontinuous cubic phase [1]: solubilized
solubilization in reversed cubic phase [1]: fully solubilized

CC(=O)O[C@H]1C(=O)[C@@]2(C)[C@H]([C@H](OC(=O)c3ccccc3)[C@]3(O)C[C@H](OC(=O)[C@H](O)[C@@H](NC(=O)c4ccccc4)c4ccccc4)C(C)=C1C3(C)C)[C@]1(OC(C)=O)CO[C@@H]1C[C@@H]2O [Paclitaxel, paclitaxel]
Paclitaxel solubility (w/w, approx) ([2]; in oil of bay): ~16%
Paclitaxel solubility (w/w, approx) ([2]; in palmarosa oil): >10%
Paclitaxel solubility (w/w, approx) ([2]; in peppermint oil): >5%
Paclitaxel solubility (w/w, approx) ([2]; in sweet basil oil): ~7%
Paclitaxel solubility (w/w, approx) ([2]; in thyme oil): ~10%
solubility ([1]; oil or lipid): ≥ 5000 µg/mL

CCCCN1CCCCC1C(=O)Nc1c(C)cccc1C.Cl (stereo not drawn) [bupivicaine hydrochloride]
therapeutic half life [3]: only a few hours

C=CC(C)(O)CCC=C(C)C (stereo not drawn) [Linalool, linalool]
toxicity [4]: extremely low toxicity

O=C1CN(/N=C/c2ccc(-c3ccc([N+](=O)[O-])cc3)o2)C(O)=N1 [Dantrolene sodium, dantrolene sodium]
solubilization in reversed cubic phase [1]: free of dantrolene crystals
dissolution in reversed cubic liquid crystalline phase ([1]; Experiment 10: 3 mg in Epikuron 200/ascorbyl palmitate/gentisic acid/aminocaproic acid/ethanolamine/water + oil of ginger): dissolved
solubility in water [5]: ~300 µg/mL

N.[Cl][Pt][Cl].c1cscn1 [trans-[Pt(II)Cl2(NH3)(thiazole)]]
level solubilized in reversed cubic phase [1]: about 2.4%

O=C1CN(/N=C/c2ccc(-c3ccc([N+](=O)[O-])cc3)o2)C(O)=N1 [Dantrolene, dantrolene]
solubility in simple phospholipid-water systems [6]: very low
solubility in water ([5]; listed as dantrolene): approximately 150 mg/L

CCCCN1CCCCC1C(=O)Nc1c(C)cccc1C (stereo not drawn) [bupivicaine]
solubilization in liquid crystal (reversed cubic phase) [1]: solubilized
KOW (octanol-water partition coefficient) [7]: approximately 1500
